Assay results taken from PubChem BioAssay (NCI).
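Values below derive from 48-hour exposures of cells grown in 96-well plates, with endpoints linearly interpolated between the two concentrations bracketing the appropriate inhibition level. The concentration for 50% growth inhibition is given as GI50. TGI denotes the concentration required for complete inhibition of growth.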

What was measured:
Assay in all cases: inhibition of tumour cell growth, NCI panel, 48 h
[1] = system: RPMI-8226 leukemia
[2] = system: NCI-H522 lung
[3] = system: PC-3 prostate
[4] = system: HS 578T breast
[5] = system: SK-OV-3 ovarian
[6] = system: SK-MEL-5 melanoma
[7] = system: NCI-H23 lung
[8] = system: NCI-H226 lung
[9] = system: 786-0 renal
[10] = system: ACHN renal
[11] = system: SNB-75 CNS
[12] = system: OVCAR-3 ovarian
[13] = system: LOX IMVI melanoma
[14] = system: CCRF-CEM leukemia
[15] = system: CAKI-1 renal
[16] = system: EKVX NSCLC
[17] = system: TK-10 renal
[18] = system: MDA-MB-468 breast
[19] = system: HOP-92 NSCLC
[20] = system: MDA-MB-435
[21] = system: HL-60(TB) leukemia
[22] = system: SF-539 CNS
[23] = system: OVCAR-8 ovarian
[24] = system: HCT-116 colon
[25] = system: COLO 205 colon
[26] = system: HCC-2998 colon
[27] = system: A549 NSCLC
[28] = system: HCT-15 colon
[29] = system: SNB-19 CNS
[30] = system: BT-549 breast
[31] = system: MCF7 breast
[32] = system: SK-MEL-28 melanoma
[33] = system: NCI-H460 lung
[34] = system: SN12C renal
[35] = system: HT29 colon
[36] = system: SW-620 colon
[37] = system: MOLT-4 leukemia
[38] = system: KM12 colon
[39] = system: OVCAR-5 ovarian
[40] = system: SF-295 CNS
[41] = system: U251 CNS
[42] = system: T-47D breast
[43] = system: A498 renal
[44] = system: IGROV1 ovarian
[45] = system: M14 melanoma
[46] = system: SK-MEL-2 melanoma
[47] = system: RXF 393 renal
[48] = system: K-562 leukemia
[49] = system: OVCAR-4 ovarian
[50] = system: MALME-3M melanoma
[51] = system: SF-268 CNS
[52] = system: NCI/ADR-RES ovarian
[53] = system: DU-145 prostate
[54] = system: HOP-62 NSCLC
[55] = system: UACC-62 melanoma
[56] = system: UACC-257 melanoma

CO[C@H]1CSS[C@@H]1Cn1nc(-c2ccc(Oc3ccccc3)cc2)c2c(N)ncnc21
GI50 [1]: 13.5 µM | TGI [1]: 51.4 µM | GI50 [2]: 11 µM | TGI [2]: 27.2 µM | GI50 [3]: 18 µM | TGI [3]: 75.1 µM | GI50 [4]: 14.2 µM | TGI [4]: 68.3 µM | GI50 [5]: 2380 nM | TGI [5]: 7.36 µM | GI50 [6]: 3.21 µM | TGI [6]: 12.2 µM | GI50 [7]: 8.51 µM | TGI [7]: 42.1 µM | GI50 [8]: 9.1 µM | TGI [8]: 50.3 µM | GI50 [9]: 17.4 µM | TGI [9]: 58 µM | GI50 [10]: 4.5 µM | TGI [10]: 37.3 µM | GI50 [11]: 18.8 µM | TGI [11]: 75.3 µM | GI50 [12]: 7.82 µM | TGI [12]: 30.5 µM | GI50 [13]: 8.01 µM | TGI [13]: 20.7 µM | GI50 [14]: 4.49 µM | TGI [14]: 22.3 µM | GI50 [15]: 8.17 µM | TGI [15]: 74.7 µM | GI50 [16]: 4.87 µM | TGI [16]: 30.1 µM | GI50 [17]: 8.05 µM | TGI [17]: 25.7 µM | GI50 [18]: 3.06 µM | TGI [18]: 12.9 µM | GI50 [19]: 5.03 µM | TGI [19]: 29.3 µM | GI50 [20]: 2000 nM | TGI [20]: 4.28 µM | GI50 [21]: 4.16 µM | TGI [21]: 17.6 µM | GI50 [22]: 14.4 µM | TGI [22]: 49.2 µM | GI50 [23]: 7.26 µM | TGI [23]: 53.7 µM | GI50 [24]: 4.19 µM | TGI [24]: 15.9 µM | GI50 [25]: 11.3 µM | TGI [25]: 24.7 µM | GI50 [26]: 4.31 µM | TGI [26]: 18 µM | GI50 [27]: 4.37 µM | TGI [27]: > 100 µM | GI50 [28]: 6.09 µM | TGI [28]: 32.6 µM | GI50 [29]: 5.96 µM | TGI [29]: > 100 µM | GI50 [30]: 18.4 µM | TGI [30]: 34.6 µM | GI50 [31]: 3.84 µM | TGI [31]: 20.6 µM | GI50 [32]: 2750 nM | TGI [32]: 8.16 µM | GI50 [33]: 2690 nM | TGI [33]: 7.89 µM | GI50 [34]: 6.52 µM | TGI [34]: 27.3 µM | GI50 [35]: 4.28 µM | TGI [35]: 18.1 µM | GI50 [36]: 14.6 µM | TGI [36]: > 100 µM | GI50 [37]: 1840 nM | TGI [37]: 4.93 µM | GI50 [38]: 5.51 µM | TGI [38]: 28 µM | GI50 [39]: 11.4 µM | TGI [39]: 41.3 µM | GI50 [40]: 20.6 µM | TGI [40]: 63.4 µM | GI50 [41]: 6.89 µM | TGI [41]: 55.2 µM | GI50 [42]: 2810 nM | TGI [42]: 20.8 µM | GI50 [43]: 17.7 µM | TGI [43]: 63.9 µM | GI50 [44]: 8.69 µM | TGI [44]: 35.3 µM | GI50 [45]: 1860 nM | TGI [45]: 3.78 µM | GI50 [46]: 3.99 µM | TGI [46]: 15 µM | GI50 [47]: 6.13 µM | TGI [47]: 25.3 µM | GI50 [48]: 2830 nM | TGI [48]: 14.4 µM | GI50 [49]: 18.4 µM | TGI [49]: > 100 µM | GI50 [50]: 9.3 µM | TGI [50]: 23.1 µM | GI50 [51]: 4.22 µM | TGI [51]: > 100 µM | GI50 [52]: 12.8 µM | TGI [52]: 64.6 µM | GI50 [53]: 13.7 µM | TGI [53]: > 100 µM | GI50 [54]: 3.25 µM | TGI [54]: 26.9 µM | GI50 [55]: 2820 nM | TGI [55]: 12.7 µM | GI50 [56]: 2980 nM | TGI [56]: 12 µM
